Measurements reported in ChEMBL document CHEMBL1126449, “Synthesis and anti-acetylcholinesterase activity of 1-benzyl-4-[(5,6-dimethoxy-1-indanon-2-yl)methyl]piperidine hydrochloride (E2020) and related compounds” (Bioorg Med Chem Lett, 1992).

Biological target: T1, Acetylcholinesterase (Mus musculus, UniProt P21836)
T1 sequence (P21836 whole entry): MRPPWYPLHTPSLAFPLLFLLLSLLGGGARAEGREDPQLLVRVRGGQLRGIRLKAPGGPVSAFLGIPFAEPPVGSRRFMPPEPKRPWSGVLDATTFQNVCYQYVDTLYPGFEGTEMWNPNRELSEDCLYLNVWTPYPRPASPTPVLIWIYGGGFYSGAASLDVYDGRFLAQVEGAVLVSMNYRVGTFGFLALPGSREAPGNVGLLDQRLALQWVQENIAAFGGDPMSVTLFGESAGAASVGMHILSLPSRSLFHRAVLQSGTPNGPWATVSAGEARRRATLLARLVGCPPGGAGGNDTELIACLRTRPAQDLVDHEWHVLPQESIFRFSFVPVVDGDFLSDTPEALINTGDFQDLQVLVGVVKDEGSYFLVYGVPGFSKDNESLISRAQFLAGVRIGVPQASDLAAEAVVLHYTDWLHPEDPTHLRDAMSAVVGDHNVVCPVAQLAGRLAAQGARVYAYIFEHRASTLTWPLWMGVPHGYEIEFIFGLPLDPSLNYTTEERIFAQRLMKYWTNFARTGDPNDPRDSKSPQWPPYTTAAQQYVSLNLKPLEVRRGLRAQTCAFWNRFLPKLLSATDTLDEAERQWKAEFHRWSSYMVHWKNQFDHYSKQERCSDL
Test: biochemical
Description: Inhibition of Acetylcholinesterase activity in mouse brain homogenate

| SMILES | IC50 |
| --- | --- |
| COc1cc2c(cc1OC)C(=O)/C(=C/C1CCN(Cc3ccccc3)CC1)C2 | 13 nM |
| COc1cc2c(cc1OC)C(=O)C(CC1CCN(Cc3cccc(C)c3)CC1)C2 (configuration not stated) | 2.7 nM |
| COc1cc2c(cc1OC)C(=O)C(CC1CCN(Cc3ccc([N+](=O)[O-])cc3)CC1)C2 (configuration not stated) | 100 nM |
| COc1cc2c(cc1OC)CC(CC1CCN(Cc3ccccc3)CC1)=C2 | 4400 nM |
| COc1cc2c(cc1OC)C(=O)C(CC1CCN(Cc3ccccc3C)CC1)C2 (configuration not stated) | 10 nM |
| COc1cc2c(cc1OC)C(=O)/C(=C/CC1CCN(Cc3ccccc3)CC1)C2 | 150 nM |
| COc1cc2c(cc1OC)C(=O)C(CC1CCN(CC3CCCCC3)CC1)C2 (configuration not stated) | 8.9 nM |
| COc1cc2c(cc1OC)C(=O)C(CC1CCN(CCc3ccccc3)CC1)C2 (configuration not stated) | 180 nM |
| COc1cc2c(cc1OC)C(=O)C(CN1CCN(Cc3ccccc3)CC1)C2 (configuration not stated) | 94 nM |
| COc1cc2c(cc1OC)C(O)C(CC1CCN(Cc3ccccc3)CC1)C2 (configuration not stated) | 300 nM |
| COc1cc2c(cc1OC)C(=O)C(CC1CCN(Cc3cccc([N+](=O)[O-])c3)CC1)C2 (configuration not stated) | 4 nM |
| COc1cc2c(cc1OC)C(=O)C(CC1CCN(C(=O)c3ccccc3)CC1)C2 (configuration not stated) | > 10000 nM |
